Laboratory results from US20200262813A1, “1,5,7-TRISUBSTITUTED ISOQUINOLINE DERIVATIVES, PREPARATION THEREOF, AND USE THEREOF IN MEDICINES” (SHANGHAI HAIYAN PHARMACEUTICAL TECHNOLOGY CO., LTD., priority 2016, published 2020).
Read-outs that look alike come from different tables or passages of the source.

Molecular target: Recombinant PRC2 (EZH2-Y641F) (Homo sapiens, UniProt Q15910, Y641F)
Assay: In vitro methyltransferase activity test (LANCE Ultra);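 note: compounds tested as an 8-point threefold dilution series, fluorescence read after 1 h detection step at room temperature, IC50 derived from a four-parameter curve fit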
Settings: LANCE Ultra detection, 3 hours reaction
[1] = EZH2 Y641F IC50, Recombinant PRC2 (EZH2-Y641F)

Sequence of Recombinant PRC2 (EZH2-Y641F) (Q15910 whole entry Y641F): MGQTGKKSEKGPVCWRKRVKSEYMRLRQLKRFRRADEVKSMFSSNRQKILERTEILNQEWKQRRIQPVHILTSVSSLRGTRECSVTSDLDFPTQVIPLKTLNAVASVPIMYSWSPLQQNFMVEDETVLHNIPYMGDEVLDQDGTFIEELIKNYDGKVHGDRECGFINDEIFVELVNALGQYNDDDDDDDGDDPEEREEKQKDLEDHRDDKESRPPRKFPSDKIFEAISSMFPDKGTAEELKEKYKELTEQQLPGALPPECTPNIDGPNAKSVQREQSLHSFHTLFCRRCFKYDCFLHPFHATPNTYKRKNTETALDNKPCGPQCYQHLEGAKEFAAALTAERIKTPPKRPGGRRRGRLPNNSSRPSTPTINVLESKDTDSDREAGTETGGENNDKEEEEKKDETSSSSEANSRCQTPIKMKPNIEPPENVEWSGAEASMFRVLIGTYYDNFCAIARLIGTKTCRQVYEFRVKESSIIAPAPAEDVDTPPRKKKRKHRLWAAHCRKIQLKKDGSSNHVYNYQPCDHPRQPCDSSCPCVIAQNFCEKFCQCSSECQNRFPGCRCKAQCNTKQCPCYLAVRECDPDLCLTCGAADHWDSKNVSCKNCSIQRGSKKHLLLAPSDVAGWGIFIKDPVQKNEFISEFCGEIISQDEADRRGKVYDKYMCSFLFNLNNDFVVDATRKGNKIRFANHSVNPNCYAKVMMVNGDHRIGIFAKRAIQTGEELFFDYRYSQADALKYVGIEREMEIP
Sequence of Recombinant PRC2 (EZH2-Y641F) (O75530 whole entry partner): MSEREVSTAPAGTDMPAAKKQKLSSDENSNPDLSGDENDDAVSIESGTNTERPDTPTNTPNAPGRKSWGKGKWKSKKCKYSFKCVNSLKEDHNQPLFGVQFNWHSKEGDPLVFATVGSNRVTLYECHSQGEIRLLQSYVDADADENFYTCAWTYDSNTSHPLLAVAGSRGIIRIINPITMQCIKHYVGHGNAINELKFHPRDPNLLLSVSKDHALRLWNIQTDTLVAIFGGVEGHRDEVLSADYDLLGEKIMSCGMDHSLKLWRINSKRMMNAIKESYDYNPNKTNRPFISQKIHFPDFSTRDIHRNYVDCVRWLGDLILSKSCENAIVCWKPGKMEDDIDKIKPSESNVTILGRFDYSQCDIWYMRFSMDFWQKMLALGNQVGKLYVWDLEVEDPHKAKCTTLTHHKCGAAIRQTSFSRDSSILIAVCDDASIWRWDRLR
Sequence of Recombinant PRC2 (EZH2-Y641F) (Q15022 whole entry partner): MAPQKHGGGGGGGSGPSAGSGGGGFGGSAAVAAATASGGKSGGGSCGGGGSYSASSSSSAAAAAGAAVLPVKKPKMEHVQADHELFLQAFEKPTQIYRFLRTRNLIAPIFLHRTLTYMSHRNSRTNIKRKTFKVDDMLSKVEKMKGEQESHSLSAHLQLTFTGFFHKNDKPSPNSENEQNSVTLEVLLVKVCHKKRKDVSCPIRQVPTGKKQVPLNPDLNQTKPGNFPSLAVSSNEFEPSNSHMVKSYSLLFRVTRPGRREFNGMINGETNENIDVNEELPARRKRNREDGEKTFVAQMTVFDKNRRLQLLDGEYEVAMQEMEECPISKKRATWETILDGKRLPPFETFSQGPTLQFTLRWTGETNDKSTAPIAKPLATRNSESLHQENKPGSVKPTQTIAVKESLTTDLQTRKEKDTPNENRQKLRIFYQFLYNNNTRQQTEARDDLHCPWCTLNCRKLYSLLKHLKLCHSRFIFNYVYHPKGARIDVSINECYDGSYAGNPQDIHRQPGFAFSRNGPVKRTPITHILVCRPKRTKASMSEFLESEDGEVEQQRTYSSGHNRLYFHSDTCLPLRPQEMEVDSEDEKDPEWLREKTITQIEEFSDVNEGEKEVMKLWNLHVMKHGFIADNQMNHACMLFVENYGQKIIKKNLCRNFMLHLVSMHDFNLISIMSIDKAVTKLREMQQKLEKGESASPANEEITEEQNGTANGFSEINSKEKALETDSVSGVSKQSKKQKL
Sequence of Recombinant PRC2 (EZH2-Y641F) (Q09028 whole entry partner): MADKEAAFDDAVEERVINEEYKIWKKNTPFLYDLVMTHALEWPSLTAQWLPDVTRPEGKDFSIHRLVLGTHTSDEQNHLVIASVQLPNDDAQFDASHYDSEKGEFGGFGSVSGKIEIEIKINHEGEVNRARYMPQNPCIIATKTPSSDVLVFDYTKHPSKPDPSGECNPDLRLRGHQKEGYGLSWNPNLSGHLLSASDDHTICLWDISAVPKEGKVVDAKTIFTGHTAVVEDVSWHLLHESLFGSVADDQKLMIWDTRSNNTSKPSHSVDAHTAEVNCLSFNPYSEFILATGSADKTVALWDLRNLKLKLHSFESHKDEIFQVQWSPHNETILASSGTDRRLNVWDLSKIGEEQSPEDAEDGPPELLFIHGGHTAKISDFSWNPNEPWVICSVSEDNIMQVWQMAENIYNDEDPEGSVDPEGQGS
Sequence of Recombinant PRC2 (EZH2-Y641F) (Q6ZN18 whole entry partner): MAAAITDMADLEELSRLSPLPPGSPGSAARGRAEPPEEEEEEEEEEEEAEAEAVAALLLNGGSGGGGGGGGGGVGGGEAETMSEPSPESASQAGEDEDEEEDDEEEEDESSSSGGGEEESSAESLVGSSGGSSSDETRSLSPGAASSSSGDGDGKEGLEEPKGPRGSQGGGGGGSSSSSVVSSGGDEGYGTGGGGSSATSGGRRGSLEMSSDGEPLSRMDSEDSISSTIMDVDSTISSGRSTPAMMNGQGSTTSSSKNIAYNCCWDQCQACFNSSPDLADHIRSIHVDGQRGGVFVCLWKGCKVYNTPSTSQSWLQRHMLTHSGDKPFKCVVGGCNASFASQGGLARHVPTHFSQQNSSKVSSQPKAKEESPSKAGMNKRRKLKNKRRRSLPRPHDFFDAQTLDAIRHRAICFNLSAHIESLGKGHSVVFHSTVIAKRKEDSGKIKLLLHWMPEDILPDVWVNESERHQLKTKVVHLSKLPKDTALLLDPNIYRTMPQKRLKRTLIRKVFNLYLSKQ
Method: In Vitro Methyltransferase Activity Test
Recombinant PRC2 (EZH2-Y641F) was purchased from Active motif, S-adenosyl-methionine (SAM) and Poly-L-lysine (PLL) were purchased from Sigma-Aldrich, H3(1-50)K27mel polypeptide was purchased from Cisbio. LANCEUltra system (Perkinelmer) was used for detection. In the enzyme activity test, a compound to be tested was 1:3 diluted for 8 gradient points, added into a reaction plate, and then added 100 ng recombinant enzyme. And then a buffer [20 mM Tris pH8.5, 2 mM MgCl2, 0.01% Tween-20, 1 mM TCEP] containing 2.5 M SAM/250 nM H3(1-50)K27mel premixture was added to conduct an enzyme reaction at room tempreture. After reacted for 3 hours, a dection solution containing premixed PLL, detection antibody and Ulight was added, reacted for 1 h at RT, then fluorescence was read on Tecan infinite pro. IC50s were calculated by four-factor model fitting in a XLfit software.

Row | SMILES | IC50 [1] | IC50 (read-out: EZH2 Y641F IC50, Recombinant PRC2 (EZH2-Y641F))
1 | CCN(c1cc(Br)cc2c(NCc3c(C)cc(C)[nH]c3=O)nccc12)C1CCOCC1 [Compound Z-3, 3-((7-bromo-5-(ethyl (tetrahydro-2H-pyran-4-yl)amino)isoquinolin-1-ylamino)methyl)-4,6-dimethyl-2(1H)-one] | 186 nM | 
2 | CCN(c1cc(Cl)cc2c(NCc3c(C)cc(C)[nH]c3=O)nccc12)C1CCOCC1 [Compound Z-4, 3-((7-chloro-5-(ethyl (tetrahydro-2H-pyran-4-yl)amino)isoquinolin-1-ylamino)methyl)-4,6-dimethyl-2(1H)-one] | 295 nM | 
3 | CCN(c1cc(C#N)cc2c(NCc3c(C)cc(C)[nH]c3=O)nccc12)C1CCOCC1 [Compound Z-6, 1-((4,6-dimethyl-2-oxo-1,2-dihydropyridin-3-yl)methylamino)-5-(ethyl (tetrahydro-2H-pyran-4-yl)amino)isoquinoline-7-carbonitrile] | 611 nM | 
4 | CCN(c1cc(-c2cnn(C)c2)cc2c(NCc3c(C)cc(C)[nH]c3=O)nccc12)C1CCOCC1 [Compound Z-7, 3-((5-(ethyl (tetrahydro-2H-pyran-4-yl)amino)-7-(1-methyl-1H-pyrazol-4-yl)isoquinoline-1-ylamino)methyl)-4,6-dimethylpyridin-2(1H)-one] | 481 nM | 
5 | CCN(c1cc(Cl)cc2c(NCc3c(C)cc(C)nc3O)nccc12)C1CC2CNCC2C1 (stereo not shown) [Compound Z-9, 3-((7-chloro-5-(ethyl (octahydrocyclopenta[c]pyrrol-5-yl)amino)isoquinolin-1-ylamino)methyl)-4,6-dimethylpyridine-2-ol] | 57 nM | 
6 | CCN(c1cc(C(F)(F)F)cc2c(NCc3c(C)cc(C)[nH]c3=O)nccc12)C1CCNCC1 [Compound Z-13, 3-((5-(ethyl (piperidin-4-yl)amino)-7-(trifluoromethyl)isoquinolin-1-ylamino)methyl)-4,6-dimethylpyridine-2(1H)-one] | 92 nM | 
7 | CCN(c1cc(-c2cn[nH]c2)cc2c(NCc3c(C)cc(C)[nH]c3=O)nccc12)C1CCOCC1 [Compound Z-14] | 426 nM | 
8 | CCN(c1cc(Br)cc2c(NCc3c(C)cc(C)[nH]c3=O)nccc12)C1CCC(N(C)C)CC1 (stereo not shown) [Compound Z-15, 3-((7-bromo-5-((4-(dimethylamino)cyclohexyl) (ethyl)amino)isoquinolin-1-ylamino)methyl)-4,6-dimethyl-2(1H)-one] | 91 nM | 
9 | CCN(c1cc(C(F)(F)F)cc2c(NCc3c(C)cc(C)[nH]c3=O)nccc12)C1CCOCC1 [Compound Z-16, 3-((5-(ethyl (tetrahydro-2H-pyran-4-yl)amino)-7-(trifluoromethyl)isoquinolin-1-ylamino)methyl)-4,6-dimethyl-2(1H)-one] | 428 nM | 
10 | CCN(c1cc(C(N)=O)cc2c(NCc3c(C)cc(C)[nH]c3=O)nccc12)C1CCOCC1 [Compound Z-18] | 284 nM | 
11 | CCN(c1cc(C(N)=O)cc2c(NCc3c(C)cc(C)[nH]c3=O)nccc12)C1CCC(N(C)C)CC1 (stereo not shown) [Compound Z-21] |  | 205 nM
12 | CCN(c1cc(-c2cnn(C)c2)cc2c(NCc3c(C)cc(C)[nH]c3=O)nccc12)[C@H]1CC[C@H](N(C)C)CC1 [Compound Z-38] | 138 nM | 
13 | CCN(c1cc(-c2ccc(N3CCOCC3)nc2)cc2c(NCc3c(C)cc(C)[nH]c3=O)nccc12)C1CCC(NC(C)=O)CC1 (stereo not shown) [Compound Z-48] | 303 nM | 
14 | CCN(c1cc(-c2ccc(N3CCN(C)CC3)nc2)cc2c(NCc3c(C)cc(C)[nH]c3=O)nccc12)C1CCN(C)CC1 [Compound Z-50] | 26 nM | 
15 | CCN(c1cc(-c2ccc(N3CCN(C)CC3)nc2)cc2c(NCc3c(C)cc(C)[nH]c3=O)nccc12)C1CCNCC1 [Compound Z-56] | 7 nM | 
16 | CCN(c1cc(-c2ccc(N3CCN(C)CC3)nc2)cc2c(NCc3c(C)cc(C)[nH]c3=O)nccc12)C1CCN(C(C)=O)CC1 [Compound Z-57] | 86 nM | 
17 | CCN(c1cc(-c2ccc(N3CCOCC3)nc2)cc2c(NCc3c(C)cc(C)[nH]c3=O)nccc12)C1CCN(C(C)=O)CC1 [Compound Z-59] | 277 nM | 
18 | CCN(c1cc(C2=CCN(C)CC2)cc2c(NCc3c(C)cc(C)[nH]c3=O)nccc12)C1CCC(N(C)C)CC1 (stereo not shown) [Compound Z-61] | 12 nM | 
19 | CCN(c1cc(-c2cnc(N3CCOCC3)nc2)cc2c(NCc3c(C)cc(C)[nH]c3=O)nccc12)C1CCN(C(C)C)CC1 [Compound Z-62] | 80 nM | 
20 | CCN(c1cc(-c2cnc(N3CCN(C)CC3)nc2)cc2c(NCc3c(C)cc(C)[nH]c3=O)nccc12)C1CCN(C(C)C)CC1 [Compound Z-67] | 70 nM | 
21 | CCN(c1cc(-c2cccnc2)cc2c(NCc3c(C)cc(C)[nH]c3=O)nccc12)C1CCN(C(C)C)CC1 [Compound Z-68] | 150 nM | 
22 | CCN(c1cc(-c2ccc(CN3CCOCC3)nc2)cc2c(NCc3c(C)cc(C)[nH]c3=O)nccc12)C1CCN(C(C)C)CC1 [Compound Z-69] | 100 nM | 
23 | CCN(c1cc(-c2ccccc2)cc2c(NCc3c(C)cc(C)[nH]c3=O)nccc12)C1CCC(N(C)C)CC1 (stereo not shown) [Compound Z-75] | 128 nM | 
24 | CCN(c1cc(-c2ccc(N3CCN(C)CC3)nc2)cc2c(NCc3c(C)cc(C)[nH]c3=O)nccc12)C1CCN(CCF)CC1 [Compound Z-76] | 60 nM | 

Second part, led by results:

Row | IC50 [1] | SMILES | IC50 (read-out: EZH2 Y641F IC50, Recombinant PRC2 (EZH2-Y641F))
25 | 422 nM | CCN(c1cc(-c2ccc(CN3CCOCC3)cc2)cc2c(NCc3c(C)cc(C)[nH]c3=O)nccc12)C1CCOCC1 [Compound Z-1] | 
26 | 86 nM | CCN(c1cc(-c2ccc(CN3CCNCC3)cc2)cc2c(NCc3c(C)cc(C)[nH]c3=O)nccc12)C1CCOCC1 [Compound Z-8, 3-((5-(ethyl (tetrahydro-2H-pyran-4-yl)amino)-7-(4-(piperazin-1-ylmethyl)phenyl)isoquinoline-1-ylamino)methyl)-4,6-dimethyl-2(1H)-one] | 
27 | 212 nM | CCN(c1cc(-c2ccc(CN3CCCCC3)cc2)cc2c(NCc3c(C)cc(C)[nH]c3=O)nccc12)C1CCOCC1 [Compound Z-23] | 
28 | 152 nM | CCN(c1cc(-c2ccc(N3CCN(C)CC3)nc2)cc2c(NCc3c(C)cc(C)[nH]c3=O)nccc12)C1CCOCC1 [Compound Z-24] | 
29 | 96 nM | CCN(CC)Cc1ccc(-c2cc(N(CC)C3CCOCC3)c3ccnc(NCc4c(C)cc(C)[nH]c4=O)c3c2)cc1 [Compound Z-27] | 
30 | 341 nM | CCN(c1cc(-c2ccc(N3CCOCC3)nc2)cc2c(NCc3c(C)cc(C)[nH]c3=O)nccc12)C1CCOCC1 [Compound Z-28] | 
31 | 157 nM | CCN(c1cc(-c2ccc(CN3CCN(C)CC3)cc2)cc2c(NCc3c(C)cc(C)[nH]c3=O)nccc12)C1CCOCC1 [Compound Z-29] | 
32 | 298 nM | CCN(c1cc(-c2ccc(CN(C)C)cc2)cc2c(NCc3c(C)cc(C)[nH]c3=O)nccc12)C1CCOCC1 [Compound Z-30] | 
33 | 328 nM | CCN(c1cc(-c2ccc(CN3CCC[C@H](O)C3)cc2)cc2c(NCc3c(C)cc(C)[nH]c3=O)nccc12)C1CCOCC1 [Compound Z-31] | 
34 | 488 nM | CCN(c1cc(-c2ccc(NC3CCOCC3)cc2)cc2c(NCc3c(C)cc(C)[nH]c3=O)nccc12)C1CCOCC1 [Compound Z-32] | 
35 | 145 nM | CCN(c1cc(-c2ccc(CN3CCOCC3)cc2)cc2c(NCc3c(C)cc(C)[nH]c3=O)nccc12)C1CCC(NC(C)=O)CC1 (stereo not shown) [Compound Z-33] | 
36 | 38 nM | CCN(c1cc(-c2ccc(CN3CCOCC3)cc2)cc2c(NCc3c(C)cc(C)[nH]c3=O)nccc12)C1CCC(N(C)C)CC1 (stereo not shown) [Compound Z-41] | 
37 | 321 nM | CCN(c1cc(-c2ccc(CN3CCOCC3)cc2)cc2c(NCc3c(C)cc(C)[nH]c3=O)nccc12)C1CCN(C(C)=O)CC1 [Compound Z-60] | 
